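Interpolation was linear, between the two tested concentrations surrounding the appropriate level; five concentrations were tested over 48 hours in 96-well plates. Abbreviation: GI50, concentration required for 50% inhibition of growth.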 Calls of active or inactive are those of the source. Rule as the data show it: active = GI50 up to about 1.1 µM and inactive = higher.
Experiments:
Assay in all cases: NCI anticancer screen, dose series, 48 h
SF-539 = tested on: SF-539
MOLT-4 = tested on: MOLT-4
EKVX = tested on: EKVX
HT-29 = tested on: HT-29
SK-MEL-2 = tested on: SK-MEL-2
OVCAR-3 = tested on: OVCAR-3
SK-OV-3 = tested on: SK-OV-3
HCT-15 = tested on: HCT-15
SW-620 = tested on: SW-620
U-251 = tested on: U-251
KM12 = tested on: KM12
K562 = tested on: K562
OVCAR-5 = tested on: OVCAR-5
SN12C = tested on: SN12C
UO-31 = tested on: UO-31
HCT-116 = tested on: HCT-116
UACC-62 = tested on: UACC-62
SK-MEL-28 = tested on: SK-MEL-28
M14 = tested on: M14
SF-268 = tested on: SF-268

C/C(=N/NC(=S)Nc1ccc([N+](=O)[O-])cc1)c1cccc(/C(C)=N\NC(=S)Nc2ccc([N+](=O)[O-])cc2)n1
GI50 (SF-539): 0.458 µM (active) | GI50 (MOLT-4): 0.308 µM (active) | GI50 (EKVX): 0.658 µM (active) | GI50 (HT-29): 0.628 µM (active) | GI50 (SK-MEL-2): 3.99 µM (inactive) | GI50 (OVCAR-3): 0.0867 µM (active) | GI50 (SK-OV-3): 2.13 µM (inactive) | GI50 (HCT-15): 0.125 µM | GI50 (SW-620): 0.364 µM (active) | GI50 (U-251): 0.547 µM (active) | GI50 (KM12): 0.348 µM (active) | GI50 (K562): 0.569 µM (active) | GI50 (OVCAR-5): 2.29 µM (inactive) | GI50 (SN12C): 0.671 µM (active) | GI50 (UO-31): 0.382 µM (active) | GI50 (HCT-116): 0.291 µM (active) | GI50 (UACC-62): 0.493 µM (active) | GI50 (SK-MEL-28): > 100 µM (inactive) | GI50 (M14): 0.321 µM (active)

O=C1C(Cl)C(c2ccccc2Cl)N1n1cnc2ccccc2c1=O (stereo not drawn)
GI50 (MOLT-4): 68.5 µM (inactive) | GI50 (EKVX): 18.5 µM (inactive) | GI50 (HT-29): > 100 µM (inactive) | GI50 (SK-MEL-2): 24.7 µM (inactive) | GI50 (OVCAR-3): > 100 µM (inactive) | GI50 (SK-OV-3): 24.2 µM (inactive) | GI50 (SF-268): 54.5 µM (inactive) | GI50 (HCT-15): 72.6 µM | GI50 (SW-620): 31.9 µM (inactive) | GI50 (U-251): 48.4 µM (inactive) | GI50 (KM12): > 100 µM (inactive) | GI50 (K562): 18.7 µM (inactive) | GI50 (OVCAR-5): > 100 µM (inactive) | GI50 (SN12C): > 100 µM (inactive) | GI50 (UO-31): 7.52 µM (inactive) | GI50 (HCT-116): 36.1 µM (inactive) | GI50 (UACC-62): 21.6 µM (inactive) | GI50 (SK-MEL-28): > 100 µM (inactive) | GI50 (M14): 94 µM (inactive)

CCOC(=O)C1(C#N)C(c2ccccc2)CC(O)(c2ccc(Cl)cc2)C(C(=O)c2ccc(Cl)cc2)C1c1ccccc1 (stereo not drawn)
GI50 (MOLT-4): 80.4 µM (inactive) | GI50 (EKVX): 52.2 µM (inactive) | GI50 (HT-29): > 100 µM (inactive) | GI50 (SK-MEL-2): > 100 µM (inactive) | GI50 (OVCAR-3): > 100 µM (inactive) | GI50 (SK-OV-3): 38.6 µM (inactive) | GI50 (SF-268): > 100 µM (inactive) | GI50 (HCT-15): > 100 µM | GI50 (SW-620): > 100 µM (inactive) | GI50 (U-251): > 10 µM (inactive) | GI50 (KM12): 34 µM (inactive) | GI50 (K562): > 10 µM (inactive) | GI50 (OVCAR-5): > 100 µM (inactive) | GI50 (SN12C): > 100 µM (inactive) | GI50 (UO-31): > 100 µM (inactive) | GI50 (HCT-116): > 100 µM (inactive) | GI50 (UACC-62): > 100 µM (inactive) | GI50 (SK-MEL-28): > 100 µM (inactive) | GI50 (M14): > 100 µM (inactive)

CC(=O)N(C)c1ccc(Nc2ccnc3ccc4nn(C)nc4c23)cc1
GI50 (SF-539): 19.2 µM (inactive) | GI50 (MOLT-4): 13.6 µM (inactive) | GI50 (EKVX): 24.3 µM (inactive) | GI50 (HT-29): 29.4 µM (inactive) | GI50 (SK-MEL-2): 17.9 µM (inactive) | GI50 (OVCAR-3): 19.3 µM (inactive) | GI50 (SK-OV-3): 22.6 µM (inactive) | GI50 (SF-268): 24.8 µM (inactive) | GI50 (HCT-15): 21.5 µM | GI50 (SW-620): 35.3 µM (inactive) | GI50 (U-251): 33.5 µM (inactive) | GI50 (KM12): 24.4 µM (inactive) | GI50 (OVCAR-5): 30.1 µM (inactive) | GI50 (SN12C): 26 µM (inactive) | GI50 (UO-31): 9.02 µM (inactive) | GI50 (HCT-116): 19 µM (inactive) | GI50 (UACC-62): 16.1 µM (inactive) | GI50 (SK-MEL-28): 20.7 µM (inactive) | GI50 (M14): 31.4 µM (inactive)

COC(=O)C(=O)Nc1cc2c3c(c1)Oc1cccc4c1C3(C)c1c(cccc1O2)O4
GI50 (SF-539): 33 µM (inactive) | GI50 (MOLT-4): 39.2 µM (inactive) | GI50 (EKVX): > 82.6 µM (inactive) | GI50 (SK-MEL-2): > 87.7 µM (inactive) | GI50 (OVCAR-3): 34.2 µM (inactive) | GI50 (SK-OV-3): > 100 µM (inactive) | GI50 (SF-268): > 100 µM (inactive) | GI50 (HCT-15): 97.5 µM | GI50 (SW-620): > 100 µM (inactive) | GI50 (U-251): > 100 µM (inactive) | GI50 (KM12): > 100 µM (inactive) | GI50 (OVCAR-5): > 55.2 µM (inactive) | GI50 (SN12C): > 69.5 µM (inactive) | GI50 (UO-31): 98.6 µM (inactive) | GI50 (HCT-116): > 75.2 µM (inactive) | GI50 (UACC-62): > 100 µM (inactive) | GI50 (SK-MEL-28): > 100 µM (inactive) | GI50 (M14): > 100 µM (inactive)

C/C=C(/C)C(=O)OC1CC(C)[C@H]2CC(=O)C(C)=C2CC1C(C)(C)OC(C)=O (stereo partly drawn)
GI50 (SF-539): 20.7 µM (inactive) | GI50 (MOLT-4): 26.2 µM (inactive) | GI50 (EKVX): 39.1 µM (inactive) | GI50 (HT-29): 35.5 µM (inactive) | GI50 (SK-MEL-2): 3.95 µM (inactive) | GI50 (OVCAR-3): 20.3 µM (inactive) | GI50 (SF-268): 58.2 µM (inactive) | GI50 (HCT-15): 19.7 µM | GI50 (SW-620): 43.7 µM (inactive) | GI50 (U-251): 38.1 µM (inactive) | GI50 (KM12): 25.9 µM (inactive) | GI50 (K562): 32.6 µM (inactive) | GI50 (OVCAR-5): > 100 µM (inactive) | GI50 (SN12C): 42 µM (inactive) | GI50 (UO-31): 23.5 µM (inactive) | GI50 (HCT-116): 19.6 µM (inactive) | GI50 (UACC-62): 21.8 µM (inactive) | GI50 (SK-MEL-28): 31 µM (inactive) | GI50 (M14): 29.2 µM (inactive)

COc1ccc(/C=C/C(=N/NC(=O)N/N=C(/C=C/c2ccc(OC)cc2)C(C)(C)CN2CCCCC2)C(C)(C)CN2CCCCC2)cc1
GI50 (SF-539): 2.28 µM (inactive) | GI50 (MOLT-4): 1.71 µM (inactive) | GI50 (EKVX): 2.8 µM (inactive) | GI50 (HT-29): 1.58 µM (inactive) | GI50 (SK-MEL-2): 1.62 µM (inactive) | GI50 (OVCAR-3): 1.87 µM (inactive) | GI50 (SK-OV-3): 1.98 µM (inactive) | GI50 (HCT-15): 3.12 µM | GI50 (SW-620): 2.11 µM (inactive) | GI50 (U-251): 1.85 µM (inactive) | GI50 (KM12): 1.81 µM (inactive) | GI50 (K562): 0.467 µM (active) | GI50 (OVCAR-5): 2.96 µM (inactive) | GI50 (SN12C): 2.7 µM (inactive) | GI50 (UO-31): 1.58 µM (inactive) | GI50 (HCT-116): 1.33 µM (inactive) | GI50 (SK-MEL-28): 1.56 µM (inactive) | GI50 (M14): 1.71 µM (inactive)

Cc1cc(C)n(-c2nc3ccccc3c(=O)n2-c2ccccc2)n1
GI50 (SF-539): > 100 µM (inactive) | GI50 (MOLT-4): > 100 µM (inactive) | GI50 (HT-29): > 100 µM (inactive) | GI50 (SK-MEL-2): 67 µM (inactive) | GI50 (OVCAR-3): > 100 µM (inactive) | GI50 (SK-OV-3): > 100 µM (inactive) | GI50 (SF-268): > 100 µM (inactive) | GI50 (HCT-15): > 100 µM | GI50 (SW-620): > 100 µM (inactive) | GI50 (U-251): > 100 µM (inactive) | GI50 (K562): > 100 µM (inactive) | GI50 (OVCAR-5): > 100 µM (inactive) | GI50 (SN12C): > 100 µM (inactive) | GI50 (UO-31): 0.621 µM (active) | GI50 (HCT-116): > 100 µM (inactive) | GI50 (SK-MEL-28): > 100 µM (inactive) | GI50 (M14): > 100 µM (inactive)
